We go through five compounds from patent US8563000B2, “Melanocortin receptor ligands modified with hydantoin” (Ipsen Pharma S.A.S., priority 2007, dated 2013).

pEC50, pKi: −log10 of the molar value.

Assay [1] has as its target T1, hMC1 (Homo sapiens, UniProt Q01726).
T1 construct: expressed in transfected cells; host or cells: CHO-K1
Briefly: Radioligand binding assay, [125I]-NDP-α-MSH, CHO-K1 membranes. Here is the method:
(§1) Cellular membranes used for the in vitro receptor binding assays were obtained from transgenic CHO-K1 cells stably expressing hMC-R receptor subtypes 1, 3, 4 or 5. […] The pellets were re-suspended in the same buffer and centrifuged at 50,000 g for 10 minutes at approximately 4° C. The washed pellets containing the cellular membranes were stored at approximately −80° C.
(§2) Filters were washed three times with 50 mM Tris-HCl at pH 7.4 at a temperature of approximately 0-4° C. and then assayed for radioactivity using a Packard Topcount® scintillation counter. Binding data were analyzed by computer-assisted non-linear regression analysis (XL fit; IDBS).

Assay [2] concerns the target T2, hMC5 (Homo sapiens, UniProt P33032).
T2 construct: expressed in transfected cells; host or cells: CHO-K1
Described as above. The procedure:
as §1, §2

The target of assay [3] is T3, hMC3 (Homo sapiens, UniProt P41968).
T3 construct: expressed in transfected cells; host or cells: CHO-K1
T3 sequence (P41968 whole entry): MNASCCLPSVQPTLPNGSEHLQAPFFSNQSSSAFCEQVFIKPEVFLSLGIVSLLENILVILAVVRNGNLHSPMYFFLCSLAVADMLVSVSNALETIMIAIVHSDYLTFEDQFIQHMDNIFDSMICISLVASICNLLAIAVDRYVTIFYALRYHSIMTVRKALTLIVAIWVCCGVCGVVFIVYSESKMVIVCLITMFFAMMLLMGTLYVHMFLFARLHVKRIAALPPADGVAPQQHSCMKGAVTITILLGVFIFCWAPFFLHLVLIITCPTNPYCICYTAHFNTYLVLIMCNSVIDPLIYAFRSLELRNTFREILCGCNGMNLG
The description is as above. Here is the method: as §1, §2

In assay [4] the target is T4, hMC4 (Homo sapiens, UniProt P32245).
T4 construct: expressed in transfected cells; host or cells: CHO-K1
T4 sequence (P32245 whole entry): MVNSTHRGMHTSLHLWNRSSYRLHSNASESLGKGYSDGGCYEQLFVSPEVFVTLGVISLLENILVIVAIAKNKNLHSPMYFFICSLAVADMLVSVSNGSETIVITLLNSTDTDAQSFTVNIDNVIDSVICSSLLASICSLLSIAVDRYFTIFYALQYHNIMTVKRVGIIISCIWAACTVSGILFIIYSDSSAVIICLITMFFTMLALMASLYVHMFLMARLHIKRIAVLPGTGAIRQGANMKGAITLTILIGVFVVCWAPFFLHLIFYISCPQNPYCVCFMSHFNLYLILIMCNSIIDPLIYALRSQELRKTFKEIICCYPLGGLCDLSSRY
Described as above. The procedure:
as §1, §2

Assay [5] has as its target T4, hMC4. Kind of assay: Cyclic AMP bioassay (ECL), CHO-K1 cells expressing hMC4. Type of assay: cell-based. The following applies: intracellular cAMP.
Experimental: (§3) Intracellular cyclic AMP (cAMP) levels were determined by an electrochemiluminescence (ECL) assay (Meso Scale Discovery®, Gaithersburg, Md.; referred to hereinafter as “MSD”). […] Transgenic CHO-K1 cells stably expressing hMC receptor subtypes 1, 3, 4 or 5 were dispensed at a density of approximately 7,000 cells/well in 384-well Multi-Array® plates (MSD) containing integrated carbon electrodes and coated with anti-cAMP antibody. Increasing concentrations of the test compounds were added and the cells were incubated for approximately 40 minutes at approximately 37° C. […] At the end of the second incubation period read buffer (Tris-buffered solution containing an ECL co-reactant and Triton X-100 at ph 7.8) was added and the cAMP levels in the cell lysates were immediately determined by ECL detection with a Sector Imager 6000 Reader® (MSD). Data was analyzed using a computer-assisted non-linear regression analysis (XL fit; IDBS) and reported as either an EC50 value or a Kb value.
The target in assay [6] is T3, hMC3. Kind of assay: Cyclic AMP bioassay (ECL), CHO-K1 cells expressing hMC3. Type of assay: cell-based. The following applies: intracellular cAMP.
Experimental: as §3
In assay [7] the target is T2, hMC5. Kind of assay: Cyclic AMP bioassay (ECL), CHO-K1 cells expressing hMC5. The assay is classed as cell-based. The following applies: intracellular cAMP.
Experimental: as §3
Assay [8] addresses T1, hMC1. Briefly: Cyclic AMP bioassay (ECL), CHO-K1 cells expressing hMC1. The assay is classed as cell-based. The following applies: intracellular cAMP.
Experimental: as §3

T2 sequence (P33032 whole entry): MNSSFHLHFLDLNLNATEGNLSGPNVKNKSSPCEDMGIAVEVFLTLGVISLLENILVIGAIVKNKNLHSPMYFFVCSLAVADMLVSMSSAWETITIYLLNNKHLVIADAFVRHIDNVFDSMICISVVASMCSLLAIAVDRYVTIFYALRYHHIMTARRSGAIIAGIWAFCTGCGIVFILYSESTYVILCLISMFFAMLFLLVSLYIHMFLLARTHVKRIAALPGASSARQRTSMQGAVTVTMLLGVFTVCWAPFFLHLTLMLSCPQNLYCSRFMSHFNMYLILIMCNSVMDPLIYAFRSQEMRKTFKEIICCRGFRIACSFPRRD
T1 sequence (Q01726 whole entry): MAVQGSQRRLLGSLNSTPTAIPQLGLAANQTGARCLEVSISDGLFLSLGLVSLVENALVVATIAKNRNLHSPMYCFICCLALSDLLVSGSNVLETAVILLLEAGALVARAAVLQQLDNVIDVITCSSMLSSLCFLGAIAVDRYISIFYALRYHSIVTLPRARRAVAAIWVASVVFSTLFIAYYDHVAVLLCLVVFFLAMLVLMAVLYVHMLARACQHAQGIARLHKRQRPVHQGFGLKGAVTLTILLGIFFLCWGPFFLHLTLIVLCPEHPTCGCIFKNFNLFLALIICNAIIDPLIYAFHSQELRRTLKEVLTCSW

For the compound `N=C(N)NCCC[C@@H]1NC(=O)[C@@H](Cc2ccc3ccccc3c2)NC(=O)C2(Cc3ccccc3C2)N2C(=O)N[C@@H](CC(=O)NCCCC[C@@H](C(N)=O)NC(=O)[C@H](Cc3c[nH]c4ccccc34)NC1=O)C2=O` [cyclo[Hydantoin(C(O)-(Asp-Aic))-D-2-Nal-Arg-Trp-Lys]-NH2], the negative-log Ki (pKi) (usually the Ki on a negative log10 scale, so that one unit is a factor of ten) in assay [1] was 5.04; in assay [2], 5.94; in assay [3] it was 5.58; in assay [4], 7.45.
Turning to `N=C(N)NCCC[C@@H]1NC(=O)[C@@H](Cc2ccccc2)NC(=O)[C@H](Cc2cnc[nH]2)NC(=O)[C@H](CCC(=O)O)NC(=O)[C@@H](NC(=O)CN2C(=O)N[C@H](CCCNC(=N)N)C2=O)CSSC[C@@H](C(N)=O)NC(=O)[C@H](Cc2c[nH]c3ccccc23)NC1=O` [Hydantoin(C(O)-(D-Arg-Gly))-cyclo(Cys-Glu-His-D-Phe-Arg-Trp-Cys)-NH2], the pEC50 (in general, the EC50 on a negative log10 scale, so that one unit is a factor of ten) was 9.80 in assay [5], 7.77 in assay [6], 5.57 in assay [7] and 7.74 in assay [8]. The negative-log Ki (pKi) in assay [1] is 8.02; in assay [2], 5.65; in assay [3], 6.91; in assay [4], 8.53.
`C[C@@H]1C(=O)N[C@@H](Cc2cnc[nH]2)C(=O)N[C@H](Cc2ccccc2)C(=O)N[C@@H](CCCNC(=N)N)C(=O)N[C@@H](Cc2c[nH]c3ccccc23)C(=O)N[C@H](C(N)=O)CCCNC(=O)C[C@@H]2NC(=O)N1C2=O` [cyclo[Hydantoin(C(O)-(Asp-D-Ala))-His-D-Phe-Arg-Trp-Orn]-NH2]: the pEC50 in assay [5] is 8.35; in assay [6] it was 7.05; in assay [7], 5.03; in assay [8] it was 7.25. The pKi was 7.42 in assay [1], 5.19 in assay [2], 6.24 in assay [3] and 8.11 in assay [4].
With `N=C(N)NCCC[C@@H]1NC(=O)[C@@H](Cc2ccc3ccccc3c2)NC(=O)C2(CC2)N2C(=O)N[C@@H](CC(=O)NCCCC[C@@H](C(N)=O)NC(=O)[C@H](Cc3c[nH]c4ccccc34)NC1=O)C2=O` [cyclo[Hydantoin(C(O)-(Asp-A3c))-D-2-Nal-Arg-Trp-Lys]-NH2], the pKi in assay [1] is 5.12; in assay [2], 5.54; in assay [3], 5.72; in assay [4], 6.38.
Take `N=C(N)NCCC[C@@H]1NC(=O)[C@@H](Cc2ccccc2)NC(=O)[C@H](Cc2cnc[nH]2)NC(=O)[C@H](CCC(=O)O)NC(=O)[C@@H](NC(=O)[C@@H](CCCNC(=N)N)N2C(=O)CNC2=O)CSSC[C@@H](C(N)=O)NC(=O)[C@H](Cc2c[nH]c3ccccc23)NC1=O` [Hydantoin(C(O)-(Gly-D-Arg))-cyclo(Cys-Glu-His-D-Phe-Arg-Trp-Cys)-NH2]: the pEC50 in assay [5] is 9.90; in assay [6], 7.99; in assay [7] it was 5.13; in assay [8], 7.89. For the same compound, the pKi in assay [1] is 8.37; in assay [2] it was 5.34; in assay [3], 7.11; in assay [4], 8.75.
